Test results taken from ChEMBL document CHEMBL5150003, “Why All the Fury over Furin?” (J Med Chem, 2022).
Numbered stars: 1 amine (or outer) side, 2 acyl side, 3 side chain; on linkers, the order of the positions; unused ones are H or OH. Square brackets hold non-standard residues; d marks the D form. Peptide text beside a SMILES is read from it. * marks the point of attachment. X2 = CC(C(=O)[*:2])n1cc(C(CCCNC(=N)N)N[*:1])nn1; X1 = C[C@@H](O)[C@H](NN(CCCNC(N)N)CN*)C(N)=O; NH(4-amidinobenzyl) = N=C(N)c1ccc(CN*)cc1; PhAc = O=C(Cc1ccccc1)*; X5 = N=C(N)NC/C=C/CN*

Assays:
[1] = target: T1, Furin (Homo sapiens, UniProt P09958); assay: Inhibition of recombinant human furin using Phac-Arg-Val-Arg-Arg-AMC as substrate incubated for 30 mins and measured by microplate reader method
[2] = target: T1, Furin; assay: Inhibition of soluble recombinant human furin using pyroGlu-Arg-Thr-Lys-Arg-AMC as substrate and measured by fluorescence assay
[3] = target: T1, Furin; assay: Inhibition of human furin using Pyr-RTKR-AMC as substrate preincubated for 30 mins followed by substrate addition and measured by fluorescence based assay
[4] = Cytotoxicity against human HT-1080 cells assessed as cell viability at 100 uM and measured after 2 hrs by WST-1 method; format: toxicity, cell-based; conditions: read-out: Activity
[5] = Protective activity against Pseudomonas aeruginosa exotoxin A-induced cytotoxicity in chinese hamster CHO-DG44 cells measured by WST-1 method; format: functional, Cricetulus griseus; conditions: dose 100 µM
[6] = target: T1, Furin; assay: Inhibition of Recombinant vaccinia-expressed furin (unknown origin) using Pyr-RTKR-MCA as substrate and measured by fluorescence based assay
[7] = Inhibition of migration of human HT-1080 cells at 100 uM measured by calcein AM/ethidium homodimer (EthD-1) staining method; format: functional
[8] = Cytotoxicity against chinese hamster CHO-DG44 cells assessed as cell viability at 100 uM and measured after 2 hrs by WST-1 method; format: toxicity, cell-based, Cricetulus griseus; conditions: read-out: Activity
[9] = test system: RAW264.7; assay: Protective activity against Anthrax toxin-induced cytotoxicity in mouse RAW264.7 cells measured by WST-1 method; format: functional; conditions: dose 100 µM
[10] = test system: Mus musculus; assay: Antifibrotic activity against bleomycin-induced mouse lung fibrosis model assessed as inhibition of hydroxyproline content in lung at 30 mg/kg, po administered once daily; format: functional
[11] = target: T1, Furin; assay: Inhibition of furin in human U2OS cells measured after 24 hrs by fluorescence assay; format: cell-based
[12] = test system: Mus musculus; assay: Antifibrotic activity against bleomycin-induced mouse lung fibrosis model assessed as inhibition of TGF-beta secretion in lung at 30 mg/kg, po administered once daily; format: functional
[13] = test system: Vero; assay: Protective activity against Escherichia coli O157:H7 Shiga toxin-induced cytotoxicity in monkey Vero cells measured by LDH assay; format: functional, cell-based; conditions: Chlorocebus sabaeus
[14] = target: T1, Furin; assay: Inhibition of human furin expressed in HEK293 cells using pGlu-Arg-Thr-LysArg-AMC as substrate and measured by fluorescence based assay
[15] = target: T1, Furin; assay: Inhibition of furin (unknown origin)
[16] = Stability in mouse plasma assessed as compound remaining measured after 24 hrs; format: ADME, cell-free; conditions: read-out: Stability
[17] = Stability in mouse plasma assessed as half-life; format: ADME, cell-free

T1 sequence (P09958 whole entry): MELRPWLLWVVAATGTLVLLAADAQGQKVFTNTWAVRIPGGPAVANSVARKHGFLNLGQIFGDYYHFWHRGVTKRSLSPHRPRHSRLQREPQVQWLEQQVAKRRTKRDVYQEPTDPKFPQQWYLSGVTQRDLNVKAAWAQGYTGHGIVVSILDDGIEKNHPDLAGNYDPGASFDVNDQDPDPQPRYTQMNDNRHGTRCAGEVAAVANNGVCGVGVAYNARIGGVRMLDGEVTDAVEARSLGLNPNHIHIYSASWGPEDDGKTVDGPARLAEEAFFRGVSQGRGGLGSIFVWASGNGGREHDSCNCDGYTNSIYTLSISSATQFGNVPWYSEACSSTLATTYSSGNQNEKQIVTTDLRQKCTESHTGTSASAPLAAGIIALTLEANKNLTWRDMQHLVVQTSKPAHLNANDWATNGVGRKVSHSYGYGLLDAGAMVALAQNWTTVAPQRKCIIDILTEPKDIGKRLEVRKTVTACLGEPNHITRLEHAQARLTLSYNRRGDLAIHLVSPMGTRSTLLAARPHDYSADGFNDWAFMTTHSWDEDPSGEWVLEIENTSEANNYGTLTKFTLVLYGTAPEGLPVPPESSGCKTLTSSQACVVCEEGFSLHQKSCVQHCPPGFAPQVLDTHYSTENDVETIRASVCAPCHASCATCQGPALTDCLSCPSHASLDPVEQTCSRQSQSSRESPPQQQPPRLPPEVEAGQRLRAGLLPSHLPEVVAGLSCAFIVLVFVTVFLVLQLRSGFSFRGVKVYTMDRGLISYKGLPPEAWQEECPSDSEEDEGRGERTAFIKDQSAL

## CC(C)[C@H](NC(=O)CCCCNC(=N)N)C(=O)N[C@@H](CCCNC(=N)N)C(=O)NCc1ccc(C(=N)N)cc1
[1]
  Ki: 2.5 nM

## N=C(N)N/N=C/c1ccc(N2CCN(c3ccc(/C=N/NC(=N)N)cc3)CC2)cc1
[2]
  Ki: 1.54 µM

## CC(C)(C)[C@H](NC(=O)[C@H](CCCNC(=N)N)NC(=O)Cc1ccc(CNC(=N)N)cc1)C(=O)N[C@@H](CCCONC(=N)N)C(=O)NCc1ccc(C(=N)N)cc1
[1]
  Ki: 0.0131 nM

## CC(=O)N[C@@H](CCCNC(=N)N)C(=O)N[C@H](C(=O)N[C@@H](Cc1ccc(N=C(N)N)cc1)C(=O)NCc1ccc(C(=N)N)cc1F)C(C)C
[3]
  Ki: 0.009 µM

## CC(C)(C)[C@H](NC(=O)CCCCNC(=N)N)C(=O)N[C@@H](CCCNC(=N)N)C(=O)NCc1ccc(C(=N)N)cc1
[1]
  Ki: 1.26 nM

## N=C(N)N/N=C/c1cccc(OCCCOc2cccc(/C=N/NC(=N)N)c2)c1
[2]
  Ki: 1.7 µM

## N=C(N)Nc1ccc(O[C@H]2C[C@@H](Oc3ccc(NC(=N)N)cc3NC(=N)N)[C@H](NC(=N)N)C[C@@H]2NC(=N)N)cc1
[4]
  viability at 2 h, 100 µM: > 90%
[5]
  Activity: >30%
[6]
  Ki: 0.089 µM
[7]
  inhibition at 100 µM: 30%
[8]
  viability at 2 h, 100 µM: > 90%
[9]
  Activity: >80%

## N=C(N)Nc1ccc(OC2CCCC(Oc3ccc(NC(=N)N)cc3NC(=N)N)C2)c(NC(=N)N)c1 (stereo not drawn)
[4]
  viability at 2 h, 100 µM: > 90%
[5]
  Activity: 30%
[6]
  Ki: 1.2 µM
[7]
  inhibition at 100 µM: < 40%
[8]
  viability at 2 h, 100 µM: > 90%
[9]
  Activity: 70%

## O=C(O)CC1CCN(Cc2cc(Oc3cnc(N4CCN5CCC4C5)nc3)nc(-c3cc(Cl)cc(Cl)c3)c2)CC1 (stereo not drawn)
[10]
  inhibition in vivo at 30 mg/kg: 34%
[11]
  pXC50: 7.7
[12]
  inhibition in vivo at 30 mg/kg: 36%

## CC(C)[C@H](NS(=O)(=O)Cc1ccc(C(=N)N)cc1)C(=O)N[C@@H](CCCNC(=N)N)C(=O)NCc1ccc(C(=N)N)cc1
[3]
  Ki: 0.3 µM

## CC(=O)N[C@@H](CCCNC(=N)N)C(=O)N[C@@H](C)C(=O)N[C@@H](CCCNC(=N)N)C(=O)N[C@@H](CCCNC(=N)N)C(=O)N[C@@H](CCCNC(=N)N)C(=O)N[C@@H](CCCCN)C(=O)N[C@@H](CCCCN)C(=O)NC/C=C/CNC(=N)N (Ac-RARRRKK-X5)
[13]
  IC50: 71 µM

## N=C(N)N/N=C/c1ccc(Oc2ccc(Oc3ccc(/C=N/NC(=N)N)cc3)cc2)cc1
[2]
  Ki: 0.74 µM

## CC(C)(C)[C@H](NC(=O)[C@H](CCCNC(=N)N)NC(=O)Cc1ccccc1)C(=O)N[C@@H](CCCNC(=N)N)C(=O)NCc1ccc(C(=N)N)cc1
[14]
  Ki: 0.17 nM

## CC(=O)NCC1CCN(Cc2cc(Oc3ccc(N4CCN(CCS(C)(=O)=O)CC4)nc3)nc(-c3cc(Cl)cc(Cl)c3)c2)CC1
[10]
  inhibition in vivo at 30 mg/kg: 45%
[11]
  pXC50: 7.6
[12]
  inhibition in vivo at 30 mg/kg: 41%

## CN1CCCN(c2cnc(Oc3cc(CN4CCC(CC(=O)O)CC4)cc(-c4cc(Cl)cc(Cl)c4)n3)cn2)CC1
[10]
  inhibition in vivo at 30 mg/kg: 21%
[11]
  pXC50: 7.7
[12]
  inhibition in vivo at 30 mg/kg: 26%

## C/C(=N\NC(=N)N)c1ccc(NC(=O)CCCCC(=O)Nc2ccc(/C(C)=N/NC(=N)N)cc2)cc1
[2]
  Ki: 1.21 µM

## CC(C(=O)N[C@@H](C)C(=O)N[C@@H](CCCNC(=N)N)C(=O)N[C@@H](CCCNC(=N)N)C(=O)N[C@@H](CCCNC(=N)N)C(=O)N[C@@H](CCCCN)C(=O)N[C@@H](CCCCN)C(=O)N[C@@H](CCCNC(=N)N)C(=O)N[C@H](C(N)=O)[C@@H](C)O)n1cc(C(CCCNC(=N)N)NC(=O)[C@@H](N)CCCNC(=N)N)nn1 (stereo partly drawn) (H-R[X2]ARRRKKRT-NH2)
[15]
  Ki: 0.013 µM
[16]
  remaining at 24 h: 20%
[17]
  half-life: 1.24 h

## CC(=O)NN(CCCNC(=N)N)CC(=O)N[C@@H](C)C(=O)N[C@@H](CCCNC(=N)N)C(=O)N[C@@H](CCCNC(=N)N)C(=O)N[C@@H](CCCNC(=N)N)C(=O)N[C@@H](CCCCN)C(=O)N[C@@H](CCCCN)C(=O)NN(CCCNC(=N)N)CC(=O)N[C@H](C(N)=O)[C@@H](C)O
[13]
  IC50: 20.8 µM
[15]
  Ki: 0.046 µM
[16]
  remaining at 24 h: 45%
[17]
  half-life: 2.68 h

## COC(=O)NCC1CCN(Cc2cc(Oc3cnc(N4CCN(CCC(=O)O)CC4)nc3)nc(-c3cc(Cl)cc(Cl)c3)c2)CC1
[10]
  inhibition in vivo at 30 mg/kg: -14%
[11]
  pXC50: 7.5
[12]
  inhibition in vivo at 30 mg/kg: 7%

## N=C(N)Nc1ccc(OCCCOc2ccc(NC(=N)N)cc2NC(=N)N)c(NC(=N)N)c1
[4]
  viability at 2 h, 100 µM: > 90%
[5]
  Activity: <30%
[6]
  Ki: 2.7 µM
[7]
  inhibition at 100 µM: < 40%
[8]
  viability at 2 h, 100 µM: > 90%
[9]
  Activity: 50%

## CC(=O)N[C@@H](CCCNC(=N)N)C(=O)N[C@@H](C)C(=O)N[C@@H](CCCNC(=N)N)C(=O)N[C@@H](CCCNC(=N)N)C(=O)N[C@@H](CCCNC(=N)N)C(=O)N[C@@H](CCCCN)C(=O)N[C@@H](CCCCN)C(=O)NCc1ccc(C(=N)N)cc1 (Ac-RARRRKK-{NH(4-amidinobenzyl)})
[13]
  IC50: > 1000 µM
[15]
  Ki: 0.0038 µM
[17]
  half-life: 9.1 h

## CC(=O)N[C@@H](CCCNC(=N)N)C(=O)NN(CCCNC(=N)N)CC(=O)N[C@@H](C)C(=O)N[C@@H](CCCNC(=N)N)C(=O)N[C@@H](CCCNC(=N)N)C(=O)N[C@@H](CCCNC(=N)N)C(=O)N[C@@H](CCCCN)C(=O)N[C@@H](CCCCN)C(=O)N[C@@H](CCCNC(=N)N)C(=O)N[C@H](C(N)=O)[C@@H](C)O
[13]
  IC50: > 1000 µM
[15]
  Ki: 0.012 µM
[16]
  remaining at 24 h: 29%
[17]
  half-life: 1.04 h

## CC(=O)N[C@@H](CCCNC(=N)N)C(=O)N[C@H](C(=O)N[C@@H](Cc1ccc(N=C(N)N)cc1)C(=O)NCc1ccc(C(=N)N)c(F)c1)C(C)C
[3]
  Ki: 0.0037 µM

## CC(C)[C@H](NC(=O)[C@H](CCCNC(=N)N)NC(=O)Cc1ccc(CNC(=N)N)cc1)C(=O)N[C@@H](CCCNC(=N)N)C(=O)NCc1ccc(C(=N)N)cc1
[14]
  Ki: 0.0076 nM

## CC(=O)N[C@@H](CCCNC(=N)N)C(=O)N[C@@H](C)C(=O)N[C@@H](CCCNC(=N)N)C(=O)N[C@@H](CCCNC(=N)N)C(=O)N[C@@H](CCCNC(=N)N)C(=O)N[C@@H](CCCCN)C(=O)N[C@@H](CCCCN)C(=O)NCN(CCCNC(N)N)N[C@H](C(N)=O)[C@@H](C)O (Ac-RARRRKK-X1)
[13]
  IC50: 314 µM
[15]
  Ki: 0.028 µM
[16]
  remaining at 24 h: 57%
[17]
  half-life: 2.25 h

## CC(=O)N[C@@H](CCCNC(=N)N)C(=O)N[C@H](C(=O)N[C@@H](Cc1ccc(N=C(N)N)cc1)C(=O)NCc1ccc(C(=N)N)cc1)C(C)C
[3]
  Ki: 0.007 µM

## CC(=O)N[C@@H](CCCNC(=N)N)C(=O)N[C@H](C(=O)N[C@@H](Cc1ccc(N=C(N)N)cc1)C(=O)NCc1ccc(/C(N)=N/O)cc1)C(C)C
[3]
  Ki: 1.2 µM

## CN1CCCN(c2ncc(Oc3cc(CN4CCC(CC(=O)O)CC4)cc(-c4cc(Cl)cc(Cl)c4)n3)cn2)CC1
[10]
  inhibition in vivo at 30 mg/kg: 36%
[11]
  pXC50: 8.2
[12]
  inhibition in vivo at 30 mg/kg: 34%

## N=C(N)Nc1ccc(Oc2cccc(Oc3ccc(NC(=N)N)cc3NC(=N)N)c2)c(NC(=N)N)c1
[4]
  viability at 2 h, 100 µM: > 60%
[5]
  Activity: <40%
[6]
  Ki: 0.4 µM
[7]
  inhibition at 100 µM: < 20%
[8]
  viability at 2 h, 100 µM: > 60%
[9]
  Activity: 100%

## C/C(=N\NC(=N)N)c1ccc(OCCCOc2ccc(/C(C)=N/NC(=N)N)cc2)cc1
[2]
  Ki: 1.43 µM

## CC1C(=O)N[C@@H](CCCNC(=N)N)C(=O)N[C@@H](C)C(=O)N[C@@H](CCCNC(=N)N)C(=O)N[C@@H](CCCNC(=N)N)C(=O)N[C@@H](CCCNC(=N)N)C(=O)N[C@H](C(=O)N[C@@H](CCCCN)C(=O)N[C@@H](CCCNC(=N)N)C(=O)N[C@H](C(N)=O)[C@@H](C)O)CCCCNC(CCCNC(=N)N)c2cn1nn2 (stereo partly drawn)
[15]
  Ki: 0.0167 µM
[16]
  remaining at 24 h: 28%
[17]
  half-life: 0.7 h

## CC(C)[C@H](NC(=O)[C@H](CCCNC(=N)N)NC(=O)Cc1cccc(CNC(=N)N)c1)C(=O)N[C@@H](CCCNC(=N)N)C(=O)NCc1ccc(C(=N)N)cc1
[14]
  Ki: 0.016 nM

## CC(C)[C@H](NC(=O)[C@H](CCCNC(=N)N)NC(=O)[C@H](CCCNC(=N)N)NC(=O)[C@H](CCCNC(=N)N)NC(=O)Cc1ccccc1)C(=O)N[C@@H](CCCNC(=N)N)C(=O)NCc1ccc(C(=N)N)cc1 (PhAc-RRRVR-{NH(4-amidinobenzyl)})
[1]
  Ki: 0.0138 nM
